Key:
PBMCs [1] = test: IFN gamma release in CD3/CD28 stimulated PBMC cells (assay c); type: cell-based; conditions: Homo sapiens, read-out: IC50 Values for Inhibition of Cytokine Release, PBMCs IFNγ
Summary of the method: (§1)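 Healthy-donor PBMCs, isolated by density gradient, were plated in wells pre-coated with anti-CD3 (0.3 μg/mL) and anti-CD28 (3 μg/mL) antibodies, then exposed to compound for 3 days under normal culture conditions. IL-2 and IFN gamma in supernatants were measured by sandwich ELISA; IC50 taken from the dose-response curve.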

c-Src = c-Src (Homo sapiens (Human), UniProt P12931); test: c-Src enzyme inhibition (FRET, Z-LYTE); type: biochemical
Sequence of c-Src (P12931 whole entry, looked up): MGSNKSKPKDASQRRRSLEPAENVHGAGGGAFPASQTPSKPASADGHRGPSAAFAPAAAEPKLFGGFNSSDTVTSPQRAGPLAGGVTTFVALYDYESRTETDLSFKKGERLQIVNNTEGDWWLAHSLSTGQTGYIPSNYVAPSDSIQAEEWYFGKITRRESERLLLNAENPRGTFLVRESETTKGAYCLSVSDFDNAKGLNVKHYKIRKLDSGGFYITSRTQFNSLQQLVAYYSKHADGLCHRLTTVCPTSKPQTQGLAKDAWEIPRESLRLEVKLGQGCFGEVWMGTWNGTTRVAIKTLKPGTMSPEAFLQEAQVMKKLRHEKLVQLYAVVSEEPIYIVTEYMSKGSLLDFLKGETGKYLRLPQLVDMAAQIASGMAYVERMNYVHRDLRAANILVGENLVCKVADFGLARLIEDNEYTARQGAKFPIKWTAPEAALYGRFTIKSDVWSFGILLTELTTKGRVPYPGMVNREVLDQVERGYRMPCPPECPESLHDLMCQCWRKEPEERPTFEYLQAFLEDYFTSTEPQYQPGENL
Summary of the method: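 Fluorescence-ratio kinase assay: 2 hr compound–enzyme preincubation at RT, 1 hr reaction with ATP added as 800 μM (c-Src) or 60 μM (Syk) solution. IC50 derived from percent inhibition curves.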

PBMCs [2] = test: IL-2 release in CD3/CD28 stimulated PBMC cells (assay c); type: cell-based; conditions: Homo sapiens, read-out: IC50 Values for Inhibition of Cytokine Release, PBMCs IL-2
Summary of the method: as §1

HT29 cells = test: IL-1β-induced IL-8 release in HT29 cells (assay d); type: cell-based; conditions: Homo sapiens, HT-29; IL-1β-stimulated HT29 cells; read-out: IC50 Values for Inhibition of Cytokine Release, HT29 cells IL-8
Protocol: HT29 cells, a human colon adenocarcinoma cell line, are plated in a 96 well plate (24 hrs) and pre-treated with compounds at the desired concentration for 2 hours before addition of 5 ng/mL of IL-1β (Abcam) for 24 hours. Supernatants are harvested for IL-8 quantification by Sandwich ELISA (Duo-set, R&D System). The IC50 is determined from the dose response curve.

PBMCs [3] = test: LPS-induced IL-8 release in PBMC cells (assay b); type: cell-based, human; conditions: Homo sapiens, PBMC; LPS-stimulated PBMCs; read-out: IC50 Values for Inhibition of Cytokine Release, PBMCs IL-8
Summary of the method: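 Human PBMCs from healthy donors, isolated by density gradient, were pretreated with compound for 2 h and then stimulated with 1 ng/mL LPS (E. coli 0111:B4) for 24 h at 37° C, 5% CO2. Supernatant IL-8 and TNFα were measured by sandwich ELISA, and IC50 was taken from the dose-response curve.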

| IC50 (c-Src) [nM] | IC50 (HT29 cells) [nM] | Compound | IC50 (PBMCs [1]) [nM] | IC50 (PBMCs [2]) [nM] | IC50 (PBMCs [3]) [nM] |
| --- | --- | --- | --- | --- | --- |
| 69 | 4.8 | COc1c(CC(N)=O)cc(C(C)(C)C)cc1NC(=O)Nc1ccc(Oc2ccnc(Nc3cc(C)cc(C)c3)c2)c2ccccc12 [38(f), 2-(5-(tert-Butyl)-3-(3-(4-((2-((3,5-dimethylphenyl)amino)pyridin-4-yl)oxy)naphthalen-1-yl)ureido)-2-methoxyphenyl)acetamide] | 16.5 | 75.8 | 5.5 |
| 32 | 15.8 | COc1c(NC(=O)Nc2ccc(Oc3ccnc(Nc4ccccc4)c3)c3ccccc23)cc(C(C)(C)C)cc1P(C)(C)=O [Example 11, 1-(5-(tert-Butyl)-3-(dimethylphosphoryl)-2-methoxyphenyl)-3-(4-((2-(phenylamino)pyridin-4-yl)oxy)naphthalen-1-yl)urea] | 10.5 | 80.6 | 2.3 |
| 145 | 8.6 | COc1c(CS(C)(=O)=O)cc(C(C)(C)C)cc1NC(=O)Nc1ccc(Oc2ccnc(Nc3ccccc3)c2)c2ccccc12 [Example 19, 1-(5-(tert-Butyl)-2-methoxy-3-((methylsulfonyl)methyl)phenyl)-3-(4-((2-(phenylamino)pyridin-4-yl)oxy)naphthalen-1-yl)urea] | 26.8 | 257 | 6.2 |
| 78 | 3 | COc1cc(Nc2cc(Oc3ccc(NC(=O)Nc4cc(C(C)(C)C)cc([S+](C)[O-])c4OC)c4ccccc34)ccn2)cc(OC)c1 (stereo not shown) [Example 40, 1-(5-(tert-Butyl)-2-methoxy-3-(methylsulfinyl)phenyl)-3-(4-((2-((3,5-dimethoxyphenyl)amino)pyridin-4-yl)oxy)naphthalen-1-yl)urea] | 5.2 | 179 | 2.7 |
| 72 | 2.2 | COc1cccc(Nc2cc(Oc3ccc(NC(=O)Nc4cc(C(C)(C)C)cc([S+](C)[O-])c4OC)c4ccccc34)ccn2)c1 (stereo not shown) [Example 41, 1-(5-(tert-Butyl)-2-methoxy-3-(methylsulfinyl)phenyl)-3-(4-((2-((3-methoxyphenyl)amino)pyridin-4-yl)oxy)naphthalen-1-yl)urea] | 6.9 | 184 | 2.9 |
| 54 | 3.7 | COc1cccc(Nc2cc(Oc3ccc(NC(=O)Nc4cc(C(C)(C)C)cc(CNC(C)=O)c4OC)c4ccccc34)ccn2)c1 [Example 43, N-(5-(tert-Butyl)-2-methoxy-3-(3-(4-((2-((3-methoxyphenyl)amino)pyridin-4-yl)oxy)naphthalen-1-yl)ureido)benzyl)acetamide] | 2.8 | 30.4 | 1.4 |
| 67 | 5.2 | COc1cc(Nc2cc(Oc3ccc(NC(=O)Nc4cc(C(C)(C)C)cc(CNC(C)=O)c4OC)c4ccccc34)ccn2)cc(OC)c1 [Example 44, N-(5-(tert-Butyl)-3-(3-(4-((2-((3,5-dimethoxyphenyl)amino)pyridin-4-yl)oxy)naphthalen-1-yl)ureido)-2-methoxybenzyl)acetamide] | 2.3 | 28.3 | 1.3 |

The next lines start with the compound.

| Compound | IC50 (c-Src) [nM] | IC50 (HT29 cells) [nM] | IC50 (PBMCs [1]) [nM] | IC50 (PBMCs [2]) [nM] | IC50 (PBMCs [3]) [nM] |
| --- | --- | --- | --- | --- | --- |
| COCCOCCOCCOc1cc(Nc2cc(Oc3ccc(NC(=O)Nc4cc(C(C)(C)C)cc(CS(C)(=O)=O)c4OC)c4ccccc34)ccn2)cc(OC)c1 [15(a), 1-(5-(tert-butyl)-2-methoxy-3-((methylsulfonyl)methyl)phenyl)-3-(4-((2-((3-methoxy-5-(2-(2-(2-methoxyethoxy)ethoxy)ethoxy)phenyl)amino)pyridin-4-yl)oxy)naphthalen-1-yl)urea] | 28 | 4.2 | 27.2 | 43.2 | 3.6 |
| COCCOCCOCCOc1cc(Nc2cc(Oc3ccc(NC(=O)Nc4cc(C(C)(C)C)cc(P(C)(C)=O)c4OC)c4ccccc34)ccn2)cc(OC)c1 [Example 2, 1-(5-(tert-Butyl)-3-(dimethylphosphoryl)-2-methoxyphenyl)-3-(4-((2-((3-methoxy-5-(2-(2-(2-methoxyethoxy)ethoxy)ethoxy)phenyl)amino)pyridin-4-yl)oxy)naphthalen-1-yl)urea] | 11 | 1.7 | 2.9 | 76.1 | 1 |
| C#Cc1cc(Nc2cc(Oc3ccc(NC(=O)Nc4cc(C(C)(C)C)cc(P(C)(C)=O)c4OC)c4ccccc34)ccn2)cc(C(=O)NCCOCCOCCOC)c1 [Example 3, 3-((4-((4-(3-(5-(tert-Butyl)-3-(dimethylphosphoryl)-2-methoxyphenyl)ureido)naphthalen-1-yl)oxy)pyridin-2-yl)amino)-5-ethynyl-N-(2-(2-(2-methoxyethoxy)ethoxy)ethyl)benzamide] | 38 | 14.5 | 18.4 | 181 | 2.8 |
| COCCOCCOCCOc1cc(Nc2nccc(Oc3ccc(NC(=O)Nc4cc(C(C)(C)C)cc(OCP(C)(C)=O)c4OC)c4ccccc34)n2)cc(OC)c1 [Example 6, 1-(5-(tert-Butyl)-3-((dimethylphosphoryl)methoxy)-2-methoxyphenyl)-3-(4-((2-((3-methoxy-5-(2-(2-(2-methoxyethoxy)ethoxy)ethoxy)phenyl)amino)pyrimidin-4-yl)oxy)naphthalen-1-yl)urea] | 16 | 5.3 | 15.5 |  | 1.9 |
| COCCOCCOCCOc1cc(Nc2cc(Oc3ccc(NC(=O)Nc4cc(C(C)(C)C)cc(P(C)(C)=O)c4)c4ccccc34)ccn2)cc(OC)c1 [Example 10, 1-(3-(tert-Butyl)-5-(dimethylphosphoryl)phenyl)-3-(4-((2-((3-methoxy-5-(2-(2-(2-methoxy-ethoxy)ethoxy)ethoxy)phenyl)amino)pyridin-4-yl)oxy)naphthalen-1-yl)urea] | 16 | 8.2 | 31.3 | 88.6 | 2 |
| COCCOCCOCCOc1cc(Nc2cc(Oc3ccc(NC(=O)Nc4cc(C(C)(C)C)cc(C(=O)NCCN5CCOCC5)c4OC)c4ccccc34)ccn2)cc(OC)c1 [Example 16, 5-(tert-Butyl)-2-methoxy-3-(3-(4-((2-((3-methoxy-5-(2-(2-(2-methoxyethoxy)ethoxy)ethoxy)-phenyl)amino)pyridin-4-yl)oxy)naphthalen-1-yl)ureido)-N-(2-morpholinoethyl)benzamide] | 40 | 1.5 | 4.3 | 7.7 | 1.7 |
| COCCOCCOCCOc1cc(Nc2cc(Oc3ccc(NC(=O)Nc4cc(C(C)(C)C)cc([S+](C)[O-])c4OC)c4ccccc34)ccn2)cc(OC)c1 (stereo not shown) [Example 17, 1-(5-(tert-Butyl)-2-methoxy-3-(methylsulfinyl)phenyl)-3-(4-((2-((3-methoxy-5-(2-(2-(2-methoxyethoxy)ethoxy)ethoxy)phenyl)amino)pyridin-4-yl)oxy)naphthalen-1-yl)urea] | 30 | 2 | 4.9 | 30.5 | 0.9 |
| COc1cc(Nc2nccc(Oc3ccc(NC(=O)Nc4cc(C(C)(C)C)cc(OCP(C)(C)=O)c4OC)c4ccccc34)n2)cc(OC)c1 [Example 20, 1-(5-(tert-Butyl)-3-((dimethylphosphoryl)methoxy)-2-methoxyphenyl)-3-(4-((2-((3,5-dimethoxyphenyl)amino)pyrimidin-4-yl)oxy)naphthalen-1-yl)urea] | 33 | 3.3 | 7.9 | 10.5 | 2.5 |
| COc1cc(Nc2cc(Oc3ccc(NC(=O)Nc4cc(C(C)(C)C)cc(CC(N)=O)c4OC)c4ccccc34)ccn2)ccc1C(=O)NCC(CO)(CO)CO [Example 73, 4-((4-((4-(3-(3-(2-Amino-2-oxoethyl)-5-(tert-butyl)-2-methoxyphenyl)ureido)naphthalen-1-yl)oxy)pyridin-2-yl)amino)-N-(3-hydroxy-2,2-bis(hydroxymethyl)propyl)-2-methoxybenzamide] | 29 |  | 6.3 | 60.1 | 1.5 |
| COCCOCCOCCNC(=O)c1cc(Nc2cc(Oc3ccc(NC(=O)Nc4cc(C(C)(C)C)cc(CNC(=O)CN(C)C)c4OC)c4ccccc34)ccn2)cc(OC)c1 [Example 77, 3-((4-((4-(3-(5-(tert-Butyl)-3-((2-(dimethylamino)acetamido)methyl)-2-methoxyphenyl)ureido)naphthalen-1-yl)oxy)pyridin-2-yl)amino)-5-methoxy-N-(2-(2-(2-methoxyethoxy)ethoxy)ethyl)benzamide] | 17 |  | 2.3 | 18.9 | 0.9 |
